# Laboratory results as given in US20220016049A1, “TISSUE REPAIR” (Regenall Limited, priority 2019, published 2022).
# Experiments:
# Tendon injury = Tendon injury in a horse, recovery following treatment with vitamin A (case report); format: in vivo; details: retinyl palmitate oral 750,000 IU twice daily, at least 4 weeks
# Text: Tendon Injury—Recovery Following Treatment with Vitamin A [table] [table] Treatment with Vitamin A was initiated approximately 20 days after the initial injury. Retinyl palmitate (93.8% Retinol Equivalent) Oral 750,000 IU […] Continuing (at least 4 weeks) Functional recovery has been good considering the severity of the lesion. […] It is not uncommon for such lesions to take between 12 to 18 months to heal.
# Spinal cord injury = assay: Patient-reported outcome measure, spinal cord injury, recovery following treatment with vitamin A; format: in vivo, human
# Text: Patient-Reported Outcome Measure
# Spinal Cord Injury—Recovery Following Treatment with Vitamin A
# Vitamin A 50,000 IU (from Retinyl palmitate and fish liver oil)
# Starting in October 2018. For three months taking vitamin A 10,000×3. Increasing in end January 2019 10,000×5.
# Vitamin A (from cod liver oil and vitamin A palmitate)
# For 3 months 3 tablets a day and for 3 months 5 tablets a day
# 21 years later in February 2019
# I take 50,000 IU in one administration in the morning daily
# Continuing: Almost 2 months
# [1] = horse; cited from earlier work
substance,measurement,setting,value
Vitamin A,Functional recovery,"Tendon injury; Horse subject 1 (polo pony, 14 years), started approximately 20 days after injury",good
same,Size of the lesion (ultrasonography),Tendon injury; Horse subject 1,good reduction in the size of the lesion
same,Pain reduction (right lower back),"Spinal cord injury; Human Subject 1, injury 1963 (T4), oral 50,000 IU once daily, 3 months, started 56 years after injury",10-15%
same,Duration of pain,"Spinal cord injury; Human Subject 1, oral 50,000 IU once daily, 3 months",much less
same,"First recovery found (walking control, balance)","Spinal cord injury; Human Subject 2, spinal stenosis, both legs paralyzed, oral 30,000 IU per day for 3 months from October 2018",more walking control and balance
same,"Strength, balance and movement control","Spinal cord injury; Human Subject 2, March 2019, oral 50,000 IU per day from end of January 2019","much stronger, more balanced, more movement control"
same,Walking without any support on even level,"Spinal cord injury; Human Subject 2, beginning of April 2019, oral 50,000 IU per day",30-50 meters
same,Improvement of pain level,"Spinal cord injury; Human Subject 3, disc/nerve pain around knee, oral 50,000 IU daily, 4-5 months",80%
same,Neck flexibility,"Spinal cord injury; Human Subject 4, injury at C4/C5 in 1998, oral 50,000 IU daily, almost 2 months, started 21 years after injury",much more flexible
same,Neck aching,"Spinal cord injury; Human Subject 4, oral 50,000 IU daily, almost 2 months",largely disappeared
same,Vitamin A toxicity level,[1],"around 1,000 IU/kg body weight (BW)/day"
